Test results as given in ChEMBL document CHEMBL4049447 (J Med Chem, 2017).

Tests used:
[1] = Apparent permeability across apical to basolateral side in human Caco2 cells assessed as drug recovery at 10 uM measured up to 2 hrs by ESI-LC/MS/MS analysis; format: ADME, cell-based; details: Caco-2, read-out: Drug recovery
[2] = Apparent permeability across basolateral to apical side in human Caco2 cells assessed as drug recovery at 10 uM measured up to 2 hrs by ESI-LC/MS/MS analysis; format: ADME, cell-based; details: Caco-2, read-out: Drug recovery

- recovery at 2 h, 10 µM [1]: 63%
- recovery at 2 h, 10 µM [2]: 103%
SMILES: Nc1ccc2ccc(CCNCCc3cccc(Cl)c3)cc2n1
